Laboratory results: PubChem BioAssay AID1963983 (Molecular Pharmacology Branch, DTP, NCI, 2024)

Tested on: 186277-243-T-J2-PDC multi-cell spheroid viability
Assay: Anticancer human tumor 186277-243-T-J2-PDC patient-derived colon adenocarcinoma cell line growth inhibition [PI3K]
Conditions: for IC50: curve of first compound; for viability, T/C: stronger effect = lower value
How it was run: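 Targeted small molecules plus PI3K inhibitors, half-log dose series from Cmax (default top 10 microM), were applied to heterotypic spheroids of cancer cells with HUVEC and MSCs. Viability indicated growth inhibition.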

[1] = second compound 0.00316 µM, first compound 0.0316 µM
[2] = second compound 0.00316 µM, first compound 0.1 µM
[3] = second compound 0.01 µM, first compound 0.0316 µM
[4] = second compound 0.01 µM, first compound 0.1 µM
[5] = second compound 0.0316 µM, first compound 0.0316 µM
[6] = second compound 0.0316 µM, first compound 0.1 µM
[7] = second compound 0.0316 µM, first compound 0.316 µM
[8] = second compound 0.0316 µM, first compound 1 µM
[9] = second compound 0.0316 µM, first compound 3.16 µM
[10] = second compound 0.0316 µM, first compound 10 µM
[11] = second compound 0.1 µM, first compound 0.0316 µM
[12] = second compound 0.1 µM, first compound 0.1 µM
[13] = second compound 0.1 µM, first compound 0.316 µM
[14] = second compound 0.1 µM, first compound 1 µM
[15] = second compound 0.1 µM, first compound 3.16 µM
[16] = second compound 0.1 µM, first compound 10 µM
[17] = second compound 0.316 µM, first compound 0.0316 µM
[18] = second compound 0.316 µM, first compound 0.1 µM
[19] = second compound 0.316 µM, first compound 0.316 µM
[20] = second compound 0.316 µM, first compound 1 µM
[21] = second compound 0.316 µM, first compound 3.16 µM
[22] = second compound 0.316 µM, first compound 10 µM
[23] = second compound 1 µM, first compound 0.0316 µM
[24] = second compound 1 µM, first compound 0.1 µM
[25] = second compound 1 µM, first compound 0.316 µM
[26] = second compound 1 µM, first compound 1 µM
[27] = second compound 1 µM, first compound 3.16 µM
[28] = second compound 1 µM, first compound 10 µM
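Further: spheroids exposed to compounds for seven days before viability reading.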
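Wherever viability, T/C is given: 100% = DMSO vehicle control viability.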

## CC(C)NCC(C(=O)N1CCN(c2ncnc3c2C(C)CC3O)CC1)c1ccc(Cl)cc1 (stereo unspecified) + CC(Nc1ccc2c(c1)OCCn1cc(N3C(=O)OCC3C(F)F)nc1-2)C(N)=O
Second compound 0.00316 µM
  IC50: 1.12 µM
Second compound 0.01 µM
  IC50: 0.774 µM
Second compound 0.0316 µM
  IC50: 0.648 µM
Second compound 0.1 µM
  IC50: 0.355 µM
Second compound 0.316 µM
  IC50: 0.134 µM
Second compound 1 µM
  IC50: < 0.0316 µM
[1]
  viability, T/C: 92.9%
[2]
  viability, T/C: 77.1%
Second compound 0.00316 µM, first compound 0.316 µM
  viability, T/C: 64.1%
Second compound 0.00316 µM, first compound 1 µM
  viability, T/C: 52%
Second compound 0.00316 µM, first compound 3.16 µM
  viability, T/C: 39.6%
Second compound 0.00316 µM, first compound 10 µM
  viability, T/C: 21.4%
[3]
  viability, T/C: 95.3%
[4]
  viability, T/C: 87.2%
Second compound 0.01 µM, first compound 0.316 µM
  viability, T/C: 62.2%
Second compound 0.01 µM, first compound 1 µM
  viability, T/C: 47%
Second compound 0.01 µM, first compound 3.16 µM
  viability, T/C: 29.8%
Second compound 0.01 µM, first compound 10 µM
  viability, T/C: 18.9%
[5]
  viability, T/C: 104%
[6]
  viability, T/C: 97%
[7]
  viability, T/C: 71.4%
[8]
  viability, T/C: 37.1%
[9]
  viability, T/C: 19%
[10]
  viability, T/C: 15%
[11]
  viability, T/C: 100%
[12]
  viability, T/C: 86.2%
[13]
  viability, T/C: 51%
[14]
  viability, T/C: 27.8%
[15]
  viability, T/C: 17.1%
[16]
  viability, T/C: 12.9%
[17]
  viability, T/C: 75.9%
[18]
  viability, T/C: 53.6%
[19]
  viability, T/C: 37.6%
[20]
  viability, T/C: 24%
[21]
  viability, T/C: 11.8%
[22]
  viability, T/C: 8.85%
[23]
  viability, T/C: 40.1%
[24]
  viability, T/C: 33.3%
[25]
  viability, T/C: 24.5%
[26]
  viability, T/C: 19.4%
[27]
  viability, T/C: 17.1%
[28]
  viability, T/C: 6.4%

## CC(C)NCC(C(=O)N1CCN(c2ncnc3c2C(C)CC3O)CC1)c1ccc(Cl)cc1 (stereo unspecified) + Cc1nc(NC(=O)N2CCCC2C(N)=O)sc1-c1ccnc(C(C)(C)C(F)(F)F)c1
Second compound 0.0316 µM
  IC50: 0.893 µM
Second compound 0.1 µM
  IC50: 0.603 µM
Second compound 0.316 µM
  IC50: 0.544 µM
Second compound 1 µM
  IC50: 0.262 µM
Second compound 3.16 µM
  IC50: 0.0597 µM
Second compound 10 µM
  IC50: < 0.0316 µM
[5]
  viability, T/C: 115%
[6]
  viability, T/C: 93%
[7]
  viability, T/C: 59%
[8]
  viability, T/C: 54.1%
[9]
  viability, T/C: 31.6%
[10]
  viability, T/C: 22.5%
[11]
  viability, T/C: 90.3%
[12]
  viability, T/C: 92.4%
[13]
  viability, T/C: 58.6%
[14]
  viability, T/C: 43.9%
[15]
  viability, T/C: 23.5%
[16]
  viability, T/C: 23.9%
[17]
  viability, T/C: 94.5%
[18]
  viability, T/C: 80.2%
[19]
  viability, T/C: 64%
[20]
  viability, T/C: 36.5%
[21]
  viability, T/C: 18%
[22]
  viability, T/C: 14.3%
[23]
  viability, T/C: 92.5%
[24]
  viability, T/C: 74.8%
[25]
  viability, T/C: 45.4%
[26]
  viability, T/C: 24.7%
[27]
  viability, T/C: 21.4%
[28]
  viability, T/C: 16.3%
Second compound 3.16 µM, first compound 0.0316 µM
  viability, T/C: 56.3%
Second compound 3.16 µM, first compound 0.1 µM
  viability, T/C: 47%
Second compound 3.16 µM, first compound 0.316 µM
  viability, T/C: 25.3%
Second compound 3.16 µM, first compound 1 µM
  viability, T/C: 20.3%
Second compound 3.16 µM, first compound 3.16 µM
  viability, T/C: 10%
Second compound 3.16 µM, first compound 10 µM
  viability, T/C: 5.7%
Second compound 10 µM, first compound 0.0316 µM
  viability, T/C: 14.2%
Second compound 10 µM, first compound 0.1 µM
  viability, T/C: 13.1%
Second compound 10 µM, first compound 0.316 µM
  viability, T/C: 7.49%
Second compound 10 µM, first compound 1 µM
  viability, T/C: 9.25%
Second compound 10 µM, first compound 3.16 µM
  viability, T/C: 5.71%
Second compound 10 µM, first compound 10 µM
  viability, T/C: 3.29%

## Cn1ncnc1[C@H]1c2n[nH]c(=O)c3cc(F)cc(c23)N[C@@H]1c1ccc(F)cc1 + COc1c(OCCCN2CCOCC2)ccc2c3n(c(=NC(=O)c4cnc(N)nc4)nc12)CCN3
Second compound 0.00316 µM
  IC50: > 0.1 µM
Second compound 0.01 µM
  IC50: > 0.1 µM
Second compound 0.0316 µM
  IC50: 0.0214 µM
Second compound 0.1 µM
  IC50: < 0.000316 µM
Second compound 0.316 µM
  IC50: < 0.000316 µM
Second compound 1 µM
  IC50: < 0.000316 µM
Second compound 0.00316 µM, first compound 0.000316 µM
  viability, T/C: 102%
Second compound 0.00316 µM, first compound 0.001 µM
  viability, T/C: 100%
Second compound 0.00316 µM, first compound 0.00316 µM
  viability, T/C: 105%
Second compound 0.00316 µM, first compound 0.01 µM
  viability, T/C: 80.9%
[1]
  viability, T/C: 88%
[2]
  viability, T/C: 79.5%
Second compound 0.01 µM, first compound 0.000316 µM
  viability, T/C: 93.8%
Second compound 0.01 µM, first compound 0.001 µM
  viability, T/C: 96%
Second compound 0.01 µM, first compound 0.00316 µM
  viability, T/C: 83.6%
Second compound 0.01 µM, first compound 0.01 µM
  viability, T/C: 98.3%
[3]
  viability, T/C: 85.5%
[4]
  viability, T/C: 68.7%
Second compound 0.0316 µM, first compound 0.000316 µM
  viability, T/C: 66%
Second compound 0.0316 µM, first compound 0.001 µM
  viability, T/C: 63.8%
Second compound 0.0316 µM, first compound 0.00316 µM
  viability, T/C: 58.9%
Second compound 0.0316 µM, first compound 0.01 µM
  viability, T/C: 54.6%
[5]
  viability, T/C: 47.2%
[6]
  viability, T/C: 40.8%
Second compound 0.1 µM, first compound 0.000316 µM
  viability, T/C: 22.2%
Second compound 0.1 µM, first compound 0.001 µM
  viability, T/C: 15.9%
Second compound 0.1 µM, first compound 0.00316 µM
  viability, T/C: 16.7%
Second compound 0.1 µM, first compound 0.01 µM
  viability, T/C: 13%
[11]
  viability, T/C: 14.1%
[12]
  viability, T/C: 9.78%
Second compound 0.316 µM, first compound 0.000316 µM
  viability, T/C: 4.1%
Second compound 0.316 µM, first compound 0.001 µM
  viability, T/C: 7.07%
Second compound 0.316 µM, first compound 0.00316 µM
  viability, T/C: 5.01%
Second compound 0.316 µM, first compound 0.01 µM
  viability, T/C: 6.2%
[17]
  viability, T/C: 4.54%
[18]
  viability, T/C: 4.17%
Second compound 1 µM, first compound 0.000316 µM
  viability, T/C: 3.72%
Second compound 1 µM, first compound 0.001 µM
  viability, T/C: 4.99%
Second compound 1 µM, first compound 0.00316 µM
  viability, T/C: 1.76%
Second compound 1 µM, first compound 0.01 µM
  viability, T/C: 1.73%
[23]
  viability, T/C: 3.49%
[24]
  viability, T/C: 2.04%
